Experiment [1] concerns the target T1, Peroxisome proliferator-activated receptor gamma (Homo sapiens, UniProt P37231).
T1 sequence (P37231 whole entry): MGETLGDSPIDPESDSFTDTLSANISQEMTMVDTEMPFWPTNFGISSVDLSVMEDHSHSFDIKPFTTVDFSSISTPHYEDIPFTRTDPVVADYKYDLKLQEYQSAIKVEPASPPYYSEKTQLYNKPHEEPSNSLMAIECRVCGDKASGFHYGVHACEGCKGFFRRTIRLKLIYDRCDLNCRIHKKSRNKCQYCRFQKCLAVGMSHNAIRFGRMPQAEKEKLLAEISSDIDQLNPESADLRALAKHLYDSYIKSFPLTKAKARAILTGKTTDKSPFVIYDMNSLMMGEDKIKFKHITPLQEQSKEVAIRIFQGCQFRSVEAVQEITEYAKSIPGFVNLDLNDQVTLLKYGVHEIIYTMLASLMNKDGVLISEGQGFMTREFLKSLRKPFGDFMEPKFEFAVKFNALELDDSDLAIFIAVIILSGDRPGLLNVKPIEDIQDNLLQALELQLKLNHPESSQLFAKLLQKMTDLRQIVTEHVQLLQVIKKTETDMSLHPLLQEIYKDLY
In words: Inverse agonist activity at GST tagged human PPARgamma LBD (231 to 505 residues) expressed in Escherichia coli BL21(DE3) assessed as recruitment of fluorescein labeled corepressor NCOR2 Smrt-ID2 peptide to PPARgamma LBD incubated for 24 hrs by LanthaScreen TR-FRET assay.

Experiment [2] in a line: Antiproliferative activity against human UM-UC-9 assessed as inhibition of cell proliferation by measuring maximum efficacy after 7 days by IncuCyte live-cell imaging assay. The class given is functional. The following applies: UM-UC-9, 168 h, time 7 day.
In experiment [3] the target is T1, Peroxisome proliferator-activated receptor gamma. In words: Inverse agonist activity at human PPARgamma in human RT112/84 transfected with NLuc-fused FABP4 assessed as reduction in PPARgamma transactivation incubated for 6 to 18 hrs by Nano-Glo luciferase assay. The class given is cell-based.

In general, EC50 refers to the concentration giving half of the maximal effect. What is called IC50 is the midpoint of a concentration-inhibition curve.

SMILES strings stand for the structures.

Consider `O=C(NCc1ccc(F)c(F)c1)c1ccc(Cl)c(C(=O)Nc2ccccc2)c1`, for which, in experiment [1], the EC50 worked out at 1750 nM. The Emax in experiment [2] amounted to 103%.
On to `COCCOCc1cc(F)ccc1CNC(=O)c1cc(C(=O)Nc2ccc(C(F)(F)F)cc2C)c(Cl)cc1F`, for which the concentration giving a half-maximal response (EC50) in experiment [1] was found to be 31 nM.
Consider `O=C(NCc1ccccc1)c1cc(C(=O)Nc2ccccc2)c(Cl)c(C(F)(F)F)c1`, for which the EC50 in experiment [1] is 2200 nM. Also, the IC50 in experiment [3] is over 5 µM.
As for `Cc1cc(C(=O)NCc2ccccc2)cc(C(=O)Nc2ccccc2)c1Cl`, the EC50 in experiment [1] is over 33000 nM. Besides, the IC50 in experiment [3] was over 5 µM.
With `O=C(NCc1ccccc1)c1ccc(F)c(C(=O)Nc2ccccc2)c1`, the EC50 in experiment [1] is over 5000 nM. Also, in experiment [3], the IC50 was over 5 µM.
The matching figures for `Cc1ccccc1CNC(=O)c1ccc(Cl)c(C(=O)Nc2ccccc2)c1`: 1770 nM and 1.04 µM.
With `O=C(NCc1ccccc1)c1cc(Cl)cc(C(=O)Nc2ccccc2)c1`, the EC50 in experiment [1] is over 5000 nM. The IC50 in experiment [3] is over 5 µM.
For `Cc1cccc(CNC(=O)c2ccc(Cl)c(C(=O)Nc3ccccc3)c2)c1`, the EC50 in experiment [1] amounted to 3000 nM. In addition, in experiment [3], the IC50 was over 5 µM.
